Calls of active or inactive are those of the source. The calls are words filed in the database; no cut-off is given here.
Tests used:
[1] = species: Ovis aries; experiment: Inhibition of phosphatidyl serine liposome-stimulated sheep brain dynamin 1 GTPase activity assessed as reduction orthophosphate release up to 300 uM using GTP as substrate after 30 mins by malachite green reagent based colorimetric assay relative to control
[2] = Inhibition of phosphatidyl serine liposome-stimulated sheep brain dynamin 1 GTPase activity assessed as reduction orthophosphate release using GTP as substrate after 30 mins by malachite green reagent based colorimetric assay; parameters: species or system Ovis aries

Row | Structure (SMILES) | inhibition [1] | IC50 ([2]; read-out: IC50) | also measured
1 | Cc1cc(NCCCN(C)C)nc(Cl)n1 | inactive | – | –
2 | CCCCCCCCCCNc1nccc(NCCN(C)C)n1 | – | 44.9 µM | –
3 | CCCCCCCCCCCCNc1nc(C)cc(NCCCN(C)C)n1 | – | 37.7 µM | –
4 | CCCCCCCCCCNc1cc(NCCN(C)C)ncn1 | – | 5.1 µM | –
5 | CCCCCCCCNc1nc(C)cc(NCCN(C)C)n1 | – | 2.5 µM | –
6 | CCCCNc1nc(C)cc(Cl)n1 | inactive | – | –
7 | CCCCCCCCNc1cc(C)nc(Cl)n1 | inactive | – | –
8 | CCCCCCNc1nc(C)cc(Cl)n1 | inactive | – | –
9 | CCCCCCNc1cc(C)nc(Cl)n1 | inactive | – | –
10 | CCCN(CC1CC1)c1cc(C)nc(NCCN(C)C)n1 | – | 52 µM | –
11 | CCCCCCCCCCCCCCNc1nc(C)cc(NCCN(C)C)n1 | – | – | IC50 [2]: Not Active
12 | Cc1cc(N2CCN(C)CC2)nc(Cl)n1 | inactive | – | –
13 | CCCNc1nc(C)cc(Cl)n1 | inactive | – | –
14 | CCCCCCCCCCNc1cc(C)nc(NCCN(C)C)n1 | – | 3.8 µM | –
15 | Cc1cc(Cl)nc(NCc2ccccc2)n1 | inactive | – | –
16 | CCCCCCCCCCCCNc1cc(C)nc(NCCN)n1 | – | 5.3 µM | –
17 | CCCCCCCCCCCCNc1nc(C)cc(NCCC)n1 | – | 4.7 µM | –
18 | CCCN(CC1CC1)c1cc(C)nc(Cl)n1 | inactive | – | –
19 | CCCCCCCCCCNc1cc(C)nc(Cl)n1 | inactive | – | –
20 | CCCN(CC1CC1)c1nc(C)cc(NCCN(C)C)n1 | – | 59.8 µM | –
21 | CCCCCCCCCCCCCCCCCCNc1nc(C)cc(NCCN(C)C)n1 | – | 4.4 µM | –
22 | CCCCCCCCCCCCNc1nc(C)cc(NCCN)n1 | – | 18.6 µM | –
23 | CCCCCCCCCCCCNc1cc(C)nc(N(C)C)n1 | – | 14 µM | –
24 | CCCCCCCCCCCCNc1cc(C)nc(NCCN(C)C)n1 | – | 1.1 µM | –
25 | Cc1cc(NCCN(C)C)nc(NC2CCCCC2)n1 | – | 3.8 µM | –
26 | CCCCCCCCCCCCNc1nc(C)cc(N(C)C)n1 | – | 3.3 µM | –

More lines, main results first:

Row | inhibition [1] | IC50 ([2]; read-out: IC50) | Structure (SMILES) | also measured
27 | inactive | – | CCCCCCCCCCCCCCNc1cc(C)nc(Cl)n1 | –
28 | – | 49 µM | CCCCCCCCCCCCNc1cc(C)nc(NCCCN(C)C)n1 | –
29 | – | 3.2 µM | CCCCCCCCCCCCCCNc1cc(C)nc(NCCN(C)C)n1 | –
30 | inactive | – | Cc1cc(NC2CCCCC2)nc(Cl)n1 | –
31 | inactive | – | Cc1cc(NCCN)nc(Cl)n1 | –
32 | – | 5.2 µM | CCCCCCCCCCN(CCCCCCCCCC)c1nc(C)cc(CCN(C)C)n1 | –
33 | inactive | – | CCC(C)Nc1nc(C)cc(Cl)n1 (configuration not stated) | –
34 | inactive | – | CCC(C)Nc1cc(C)nc(Cl)n1 (configuration not stated) | –
35 | inactive | – | CCCNc1cc(C)nc(Cl)n1 | –
36 | inactive | – | Cc1cc(Cl)nc(N(C)C)n1 | –
37 | – | 2.9 µM | CCCCCCCCCCNc1ccnc(NCCN(C)C)n1 | –
38 | – | 1.8 µM | CCCCCCCCCCCCNc1ccnc(NCCN(C)C)n1 | –
39 | inactive | – | CCCCCCCCCCCCCCNc1nc(C)cc(Cl)n1 | –
40 | inactive | – | CCNc1nc(C)cc(Cl)n1 | –
41 | inactive | – | Cc1cc(Cl)nc(NCCCN(C)C)n1 | –
42 | inactive | – | Cc1cc(N(C)C)nc(Cl)n1 | –

Row | inhibition [1] | IC50 ([2]; read-out: IC50) | Structure (SMILES) | also measured
43 | – | 7.7 µM | CCCCCCCCCCCCNc1cc(NCCN(C)C)ncn1 | –
44 | – | 7.5 µM | CCCCCCCCCCN(CCCCCCCCCC)c1cc(C)nc(NCCN(C)C)n1 | –
45 | inactive | – | COc1ccc(CNc2cc(C)nc(Cl)n2)cc1 | –
46 | – | 20.6 µM | Cc1cc(NC2CCCCC2)nc(NCCN(C)C)n1 | –
47 | – | 32.5 µM | CCCCCCCCCCCCNc1cc(C)nc(Cl)n1 | –
48 | inactive | – | Cc1cc(Cl)nc(NCCNC(=O)OC(C)(C)C)n1 | –
49 | – | 8.4 µM | CCCCCCCCCCCCCCCCCCNc1cc(C)nc(NCCN(C)C)n1 | –
50 | – | 2 µM | CCCCCCCCCCCCNc1nccc(NCCN(C)C)n1 | –
51 | – | 9.3 µM | CCCCCCCCCCNc1nc(C)cc(NCCN(C)C)n1 | –
52 | – | 5.5 µM | CCCCCCCCCCCCNc1nc(C)cc(NCCO)n1 | –
53 | – | 10.6 µM | CCCCCCNc1cc(C)nc(NCCN(C)C)n1 | –
54 | – | 61.8 µM | CCCCCCCCCCCCNc1cc(C)nc(NCCC)n1 | –
55 | – | 5.8 µM | CCCCCCNc1nc(C)cc(NCCN(C)C)n1 | –
56 | – | 1.6 µM | CCCCCCCCNc1cc(C)nc(NCCN(C)C)n1 | –
57 | – | 4.6 µM | CCCCCCCCCCCCNc1cc(C)nc(NCCO)n1 | –

Source: ChEMBL document CHEMBL4000185, “Pyrimidine-Based Inhibitors of Dynamin I GTPase Activity: Competitive Inhibition at the Pleckstrin Homology Domain” (J Med Chem, 2017)
